We go through 29 molecules from patent US5688774A (priority 1995, dated 1997).

Read-outs that look alike come from different tables or passages of the source.

In test [1] the target is T1, rat brain A1 receptor (Rattus norvegicus, UniProt P25099).
T1 construct: Rat cerebral cortical and striatal membranes were prepared; from tissue; host or cells: rat brain membranes (cerebral cortical)
T1 sequence (P25099 1-326): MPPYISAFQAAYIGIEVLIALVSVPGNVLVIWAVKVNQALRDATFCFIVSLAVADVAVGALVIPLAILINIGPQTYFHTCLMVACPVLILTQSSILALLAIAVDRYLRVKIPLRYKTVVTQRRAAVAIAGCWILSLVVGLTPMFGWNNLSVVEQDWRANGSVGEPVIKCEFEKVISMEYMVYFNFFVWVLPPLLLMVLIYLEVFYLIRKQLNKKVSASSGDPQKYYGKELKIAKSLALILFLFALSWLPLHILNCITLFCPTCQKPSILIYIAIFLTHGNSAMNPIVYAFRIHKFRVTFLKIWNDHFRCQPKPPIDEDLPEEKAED
Kind of test: Displacement of [^3 H]PIA binding at A1 receptors. Particulars: for % Inhibition (A1): at 10^-4, rat brain.

Test [2] addresses T2, rat brain A2a receptor (Rattus norvegicus, UniProt P30543).
T2 construct: A2 receptors from rat striatal membranes; from tissue; host or cells: rat striatal membranes
Kind of test: Displacement of [^3 H]CGS 21680 binding at A2a receptors. How it is done:
Rat cerebral cortical and striatal membranes were prepared (Jacobson et al., J. Med. Chem., 35, 4143-4149 (1992)) and treated with ADA for 30 min at 37° C. prior to storage at -70° C.
The stock solutions were diluted with DMSO to a concentration of ≤0.1 mM prior to addition to the aqueous medium. The final concentration of DMSO in the assay medium was generally 2%.
At least six different concentrations spanning three orders of magnitude, adjusted appropriately for the IC50 of each compound, were used. […]. Pharmacol., 22, 3099-3108 (1973)).

Where [3] appears, read: [^3 H]PIA, rat brain membranes, Ki ± S.E.M., n = 3-6.
Where [4] appears, read: [^3 H]CGS 21680, rat brain membranes, Ki ± S.E.M., n = 3-6.
Setting [5] is: at 10^-4, [^3 H]CGS 21680, rat brain.

T2 sequence (P30543 whole entry): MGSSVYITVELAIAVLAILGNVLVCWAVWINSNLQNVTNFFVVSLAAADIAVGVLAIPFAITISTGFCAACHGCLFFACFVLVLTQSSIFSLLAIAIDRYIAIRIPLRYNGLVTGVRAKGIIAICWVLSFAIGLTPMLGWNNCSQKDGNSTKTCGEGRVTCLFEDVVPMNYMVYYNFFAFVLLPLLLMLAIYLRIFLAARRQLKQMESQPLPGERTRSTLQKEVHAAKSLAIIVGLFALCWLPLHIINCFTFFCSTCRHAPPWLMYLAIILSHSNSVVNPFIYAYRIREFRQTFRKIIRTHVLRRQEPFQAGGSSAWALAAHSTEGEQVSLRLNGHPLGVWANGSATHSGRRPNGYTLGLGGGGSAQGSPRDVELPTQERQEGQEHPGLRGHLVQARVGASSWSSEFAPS

As usually defined, the Ki is the dissociation constant of the complex between target and ligand, obtained from inhibition or displacement. Low readings indicate a stronger hold on the target, high ones a looser hold on the target. On to `Cn1cnc2c(NCc3cccc(I)c3)nc(Sc3ccncc3)nc21` [Compound 17, N^6-(3-Iodobenzyl)-9-Methyl-2-(4-Pyridylthio)adenine], for which the Ki was found to be 0.84 ± 0.19 µM in test [1] (setting [3]) and 11.6 ± 4 µM in test [2] (setting [4]).
2-Chloro-9-(β-arabinosyl)adenine: the Ki in test [1] (setting [3]) was 24.2 ± 7.9 µM; in test [2] (setting [4]) it was 90 ± 12.7 µM.
In the case of 9-(β-talosyl)adenine, the Ki worked out at 150 ± 28 µM in test [1] (setting [3]) and 54.7 ± 3.1 µM in test [2] (setting [4]).
Turning to `OC[C@H](O)Cn1cnc2c(NCc3cccc(I)c3)ncnc21` [Compound 20, S--N^6-(3-Iodobenzyl)-9-(2,3-Dihydroxypropyl)adenine], the Ki was 19.1 ± 2.2 µM in test [1] (setting [3]) and 41.8 ± 12.5 µM in test [2] (setting [4]).
The like results for `Cn1cnc2c(NCc3cccc(I)c3)nc(N)nc21` [Compound 9, 2-Amino-N^6-(3-iodobenzyl)-9-methyladenine] were, in that order, 5.57 ± 1.32 µM and 3.22 ± 1.52 µM.
In the case of `CNC(=O)[C@H]1O[C@@H](n2cnc3c(NOc4ccccc4)ncnc32)[C@H](O)[C@@H]1O` [Compound 71], affinity in test [2] was put at a Ki of 66.3 µM.
With `Cn1cnc2c(NCc3cccc(I)c3)ncnc21` [Compound 3, N^6-(3-Iodobenzyl)-9-Methyladenine], the values for the Ki in test [1] (setting [3]) and in test [2] (setting [4]) were 5.73 ± 1.88 µM and 2.23 ± 1.33 µM, respectively.
For `CNc1nc(NCc2cccc(I)c2)c2ncn(C)c2n1` [Compound 11, N^6-(3-Iodobenzyl)-2-Methylamino-9-Methyladenine], the Ki in test [1] (setting [3]) came to 0.648 ± 0.102 µM; in test [2] (setting [4]), 3.56 ± 0.84 µM.
In the case of `CCCNc1nc(NCc2cccc(I)c2)c2ncn(C)c2n1` [Compound 13, N^6-(3 -Iodobenzyl)-9-Methyl-2-Propylaminoadenine], the Ki in test [1] is 0.33 ± 0.08 µM; in test [2], 1.72 ± 0.7 µM.
`N#CCCCn1cnc2c(NCc3cccc(I)c3)ncnc21` [Compound 22, N^6-(3-Iodobenzyl)-9-(3-Cyanopropyl)adenine]: the Ki in test [1] (setting [3]) was 6.03 ± 1.37 µM; in test [2] (setting [4]) it was 18.7 ± 5.8 µM.
With `CNC(=O)[C@H]1O[C@@H](n2cnc3c(NNc4ccccc4)ncnc32)[C@H](O)[C@@H]1O` [Compound 70, 6-(N'-phenylhydrazinyl)Purine-9-β-Ribofuranoside-5'-N-Methyluronamide], the Ki in test [2] is 7.16 µM.
In test [1], `CCCCCCNc1nc(NCc2cccc(I)c2)c2ncn(C)c2n1` [Compound 14, 2-Hexylamino-N^6-(3-Iodobenzyl)-9-Methyladenine] registered a Ki of 4.48 ± 0.82 µM. For the same molecule, the “% Inhibition (A2a)” value in test [2] was 11 ± 4%.
As for `COc1nc(NCc2cccc(I)c2)c2ncn(C)c2n1` [Compound 15, N^6-(3-Iodobenzyl)-2-Methoxy-9-Methyladenine], the results for the Ki in test [1] (setting [3]) and in test [2] (setting [4]) were 0.5 ± 0.21 µM and 1.24 ± 0.11 µM, respectively.
In the same order, the values of `OCCn1cnc2c(NCc3cccc(I)c3)ncnc21` [Compound 18, N^6-(3-Iodobenzyl)-9-Hydroxyethyladenine] are 22.9 ± 3.7 µM and 15.1 ± 1.6 µM.
With `CNc1nc(NCc2cccc(I)c2)c2ncn([C@@H]3OC[C@@H](O)[C@H]3O)c2n1` [Compound 29, 9-(β-D-Erythrofuranoside)-2-Methylamino-N^6-(3-Iodobenzyl)adenine], the Ki was determined as 0.66 ± 0.01 µM in test [1] and 3.39 ± 0.29 µM in test [2].
As to `O=C(O)Cn1cnc2c(NCc3cccc(I)c3)ncnc21` [Compound 21, N^6-(3-Iodobenzyladenin-9-yl)acetic Acid], in test [1] ([^3 H]PIA), the “% Inhibition (A1)” value worked out at 17%. Also, the “% Inhibition (A2a)” value in test [2] amounted to 9%.
On to `Cn1cnc2c(NCc3cccc(I)c3)nc(Cl)nc21` [Compound 6, 2-Chloro-N^6-(3-Iodobenzyl)-9-Methyladenine], for which the Ki is 0.45 ± 0.11 µM in test [1] (setting [3]) and 2.7 ± 0.56 µM in test [2] (setting [4]).
In the same order, the values of `CN(C)c1nc(NCc2cccc(I)c2)c2ncn(C)c2n1` [Compound 12, 2-Dimethylamino-N^6-(3-Iodobenzyl)-9-Methyladenine] are 1.48 ± 0.12 µM and 9.89 ± 3.01 µM.
Regarding `CNC(=O)[C@H]1O[C@@H](n2cnc3c(NCc4cccc(NC(=O)CCNC(=O)OC(C)(C)C)c4)ncnc32)[C@H](O)[C@@H]1O` [Compound 67, N^6-[3-(N-6-Boc-β-Alanylamino)Benzyl]Adenosine-5'-Methyluronamide], the Ki in test [2] was 1.96 µM.
Turning to `Clc1nc(NCc2cccc(I)c2)c2ncn(C3CCCO3)c2n1` (stereo not shown) [Compound 30, 2-Chloro-N-(3-Iodobenzyl)-9-(2-Tetrahydrofuryl)-9H-Purin-6-Amine], the Ki in test [1] was 0.174 ± 0.017 µM; in test [2] it was 4.12 ± 0.18 µM.
Consider `CNC(=O)[C@@H]1C[C@H](N)[C@H](n2cnc3c(NCc4cccc(I)c4)nc(Cl)nc32)O1` [Compound 43, 2-Chloro-9-(2'-Amino-2',3'-dideoxy-β-D-5'-methyl-Arabinofuronamido)N^6-(3-Iodobenzyl)adenine], for which, in test [1] (setting [3]), the affinity, expressed as Ki, was 6.69 ± 0.74 µM. Moreover, in test [2] (setting [5]), the “% Inhibition (A2a)” value was determined as 2%.
Consider `CNC(=O)[C@H]1O[C@@H](n2cnc3c(NCc4cccc(NC(=O)[C@@H]5CCCN5)c4)ncnc32)[C@H](O)[C@@H]1O` [Compound 65, N^6-[3-(L-Prolylamino)Benzyl]Adenosine-5'-N-Methyluronamide], for which the Ki in test [2] was 0.215 ± 0.054 µM.
Consider `CNC(=O)[C@H]1C[C@@H](n2cnc3c(NCc4cccc(I)c4)ncnc32)[C@H](O)[C@@H]1O` (relative stereo) [Compound 61, (±)-9-[2α,3β-Dihydroxy-4β-(N-Methylcarbamoyl)Cyclopent-1β-yl)]-N^6-(3-Iodobenzyl)-adenine], for which the “% Inhibition (A2a)” value in test [2] (setting [5]) is recorded as 28 ± 5%.
As for `CNC(=O)[C@@H]1C[C@@H](OS(C)(=O)=O)[C@H](n2cnc3c(NCc4cccc(I)c4)nc(Cl)nc32)O1` [Compound 41, 2-Chloro-9-(3-Deoxy-2-Methanesulfonyl-β-D-5-Methyl-Ribofuronamido)-N^6-(3-Iodobenzyl)adenine], the Ki in test [1] (setting [3]) was 1.29 ± 0.08 µM; in test [2] (setting [4]), 41.9 ± 6.2 µM.
In the same order, the values of `OC[C@@H](O)Cn1cnc2c(NCc3cccc(I)c3)ncnc21` [Compound 19, R--N^6-(3-Iodobenzyl)-9-(2,3-Dihydroxypropyl)adenine] are 13.8 ± 2.2 µM and 18.9 ± 1.9 µM.
For `CNC(=O)[C@H]1O[C@@H](n2cnc3c(NCc4cccc(NC(=O)CCN)c4)ncnc32)[C@H](O)[C@@H]1O` [Compound 66, N^6-[3(β-Alanylamino)Benzyl]Adenosine-5'-Methyluronamide], in test [2], the Ki worked out at 0.144 ± 0.04 µM.
Take `CNC(=O)[C@H]1O[C@@H](n2cnc3c(NCc4ccco4)ncnc32)[C@H](O)[C@@H]1O` [Compound 74, 1-(6-Furfurylamino-9H-Purin-9-yl)-1-Deoxy-N-Methyl-β-D-Ribofuranosiduronamide]: the results for the Ki in test [1] (setting [3]) and in test [2] (setting [4]) were 8.61 ± 2.55 µM and 6.22 ± 2.71 µM, respectively.
As for `Cn1cnc2c(NCc3cccc(I)c3)nc(NN)nc21` [Compound 10, 2-Hydrazido-N^6-(3-Iodobenzyl)-9-Methyladenine], the results for the Ki in test [1] (setting [3]) and in test [2] (setting [4]) were 5.44 ± 0.05 µM and 19.6 ± 7.8 µM, respectively.
Regarding `CNC(=O)[C@H]1O[C@@H](n2cnc3c(NCc4cccc(I)c4)nc(Cl)nc32)[C@H](OC(=O)c2ccccc2)[C@@H]1OC(=O)c1ccccc1` [2-Chloro-9-(2',3'-dibenzoyl-β-D-5-methyl-ribofuronamido)-N^6-(3-iodobenzyl)adenine], in test [1] ([^3 H]PIA), the “% Inhibition (A1)” value is 21%. For the same molecule, the “% Inhibition (A2a)” value in test [2] is reported as 7%.
